According to article PMC4038586, “Venus Kinase Receptors Control Reproduction in the Platyhelminth Parasite Schistosoma mansoni” (PLoS Pathogens, 2014):

Assays:
Format in all cases: cell-based
[1] = molecular target: T1, SmVKR1 (Schistosoma mansoni, UniProt Q8WSM2); assay: GVBD assay in receptor-expressing Xenopus oocytes; settings: agonist
T1 construct: full-length, pcDNA3.1-V5/His (V5 or Myc tag), cRNA-injected Xenopus laevis oocytes; about 150 kDa; active as homodimer

[2] = molecular target: T1, SmVKR1; assay: GVBD competition assay in receptor-expressing Xenopus oocytes; settings: competitive antagonist; 10-fold excess over L-Arg; inactive as agonist
[3] = molecular target: T2, SmVKR2 (Schistosoma mansoni, UniProt D5JEH1); assay: GVBD assay in receptor-expressing Xenopus oocytes; receptor autophosphorylation by Western blot; settings: agonist; ND96 medium without Ca2+; VFT domain
T2 construct: full-length, pcDNA3.1-V5/His (V5 or Myc tag), cRNA-injected Xenopus laevis oocytes; about 170 kDa; active as homodimer

[4] = molecular target: T1, SmVKR1; assay: as above; settings: agonist; ND96 medium, 19 °C, 15 h; VFT domain; activation independent of Ca2+

T1 sequence (Q8WSM2 24-1559): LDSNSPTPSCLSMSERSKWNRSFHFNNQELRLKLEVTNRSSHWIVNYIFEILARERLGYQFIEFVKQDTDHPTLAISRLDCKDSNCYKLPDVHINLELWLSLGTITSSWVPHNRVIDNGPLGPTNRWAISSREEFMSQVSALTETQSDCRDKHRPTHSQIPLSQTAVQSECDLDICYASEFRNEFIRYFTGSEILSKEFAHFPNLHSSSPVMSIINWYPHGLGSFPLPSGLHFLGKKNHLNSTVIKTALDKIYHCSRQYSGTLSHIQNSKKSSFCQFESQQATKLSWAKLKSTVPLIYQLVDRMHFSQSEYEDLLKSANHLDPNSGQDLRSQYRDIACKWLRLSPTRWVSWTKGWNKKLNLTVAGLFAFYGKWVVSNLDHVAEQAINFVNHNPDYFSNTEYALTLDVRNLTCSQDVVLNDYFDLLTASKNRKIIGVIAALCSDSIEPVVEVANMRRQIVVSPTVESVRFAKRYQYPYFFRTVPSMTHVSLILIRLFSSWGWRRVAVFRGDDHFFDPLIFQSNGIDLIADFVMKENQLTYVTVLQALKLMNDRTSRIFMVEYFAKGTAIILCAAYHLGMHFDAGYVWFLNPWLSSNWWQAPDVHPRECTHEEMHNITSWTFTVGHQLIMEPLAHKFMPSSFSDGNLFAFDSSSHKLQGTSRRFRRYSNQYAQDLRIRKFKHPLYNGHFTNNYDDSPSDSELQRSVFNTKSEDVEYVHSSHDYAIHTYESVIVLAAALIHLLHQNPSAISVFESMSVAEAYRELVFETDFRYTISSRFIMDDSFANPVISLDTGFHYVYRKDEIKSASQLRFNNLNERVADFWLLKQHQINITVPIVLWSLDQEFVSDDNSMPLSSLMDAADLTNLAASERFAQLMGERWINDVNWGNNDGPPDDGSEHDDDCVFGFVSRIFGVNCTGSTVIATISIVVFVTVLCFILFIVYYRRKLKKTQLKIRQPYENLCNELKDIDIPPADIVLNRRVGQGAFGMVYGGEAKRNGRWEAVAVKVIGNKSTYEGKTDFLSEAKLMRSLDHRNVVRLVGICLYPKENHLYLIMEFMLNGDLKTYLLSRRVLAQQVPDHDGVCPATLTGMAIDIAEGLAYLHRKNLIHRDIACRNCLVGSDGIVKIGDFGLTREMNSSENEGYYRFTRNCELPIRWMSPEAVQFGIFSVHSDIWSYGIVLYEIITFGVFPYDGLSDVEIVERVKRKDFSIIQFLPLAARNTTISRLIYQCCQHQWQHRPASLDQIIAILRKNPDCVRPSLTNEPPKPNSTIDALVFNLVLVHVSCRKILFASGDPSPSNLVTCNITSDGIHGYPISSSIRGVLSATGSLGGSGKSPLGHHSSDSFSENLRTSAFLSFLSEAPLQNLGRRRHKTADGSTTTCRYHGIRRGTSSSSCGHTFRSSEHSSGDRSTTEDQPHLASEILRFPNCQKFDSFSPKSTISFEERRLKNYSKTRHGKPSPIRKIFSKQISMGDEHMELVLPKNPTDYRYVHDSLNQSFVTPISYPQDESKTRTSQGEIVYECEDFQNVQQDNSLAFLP
T2 sequence (D5JEH1 21-1641): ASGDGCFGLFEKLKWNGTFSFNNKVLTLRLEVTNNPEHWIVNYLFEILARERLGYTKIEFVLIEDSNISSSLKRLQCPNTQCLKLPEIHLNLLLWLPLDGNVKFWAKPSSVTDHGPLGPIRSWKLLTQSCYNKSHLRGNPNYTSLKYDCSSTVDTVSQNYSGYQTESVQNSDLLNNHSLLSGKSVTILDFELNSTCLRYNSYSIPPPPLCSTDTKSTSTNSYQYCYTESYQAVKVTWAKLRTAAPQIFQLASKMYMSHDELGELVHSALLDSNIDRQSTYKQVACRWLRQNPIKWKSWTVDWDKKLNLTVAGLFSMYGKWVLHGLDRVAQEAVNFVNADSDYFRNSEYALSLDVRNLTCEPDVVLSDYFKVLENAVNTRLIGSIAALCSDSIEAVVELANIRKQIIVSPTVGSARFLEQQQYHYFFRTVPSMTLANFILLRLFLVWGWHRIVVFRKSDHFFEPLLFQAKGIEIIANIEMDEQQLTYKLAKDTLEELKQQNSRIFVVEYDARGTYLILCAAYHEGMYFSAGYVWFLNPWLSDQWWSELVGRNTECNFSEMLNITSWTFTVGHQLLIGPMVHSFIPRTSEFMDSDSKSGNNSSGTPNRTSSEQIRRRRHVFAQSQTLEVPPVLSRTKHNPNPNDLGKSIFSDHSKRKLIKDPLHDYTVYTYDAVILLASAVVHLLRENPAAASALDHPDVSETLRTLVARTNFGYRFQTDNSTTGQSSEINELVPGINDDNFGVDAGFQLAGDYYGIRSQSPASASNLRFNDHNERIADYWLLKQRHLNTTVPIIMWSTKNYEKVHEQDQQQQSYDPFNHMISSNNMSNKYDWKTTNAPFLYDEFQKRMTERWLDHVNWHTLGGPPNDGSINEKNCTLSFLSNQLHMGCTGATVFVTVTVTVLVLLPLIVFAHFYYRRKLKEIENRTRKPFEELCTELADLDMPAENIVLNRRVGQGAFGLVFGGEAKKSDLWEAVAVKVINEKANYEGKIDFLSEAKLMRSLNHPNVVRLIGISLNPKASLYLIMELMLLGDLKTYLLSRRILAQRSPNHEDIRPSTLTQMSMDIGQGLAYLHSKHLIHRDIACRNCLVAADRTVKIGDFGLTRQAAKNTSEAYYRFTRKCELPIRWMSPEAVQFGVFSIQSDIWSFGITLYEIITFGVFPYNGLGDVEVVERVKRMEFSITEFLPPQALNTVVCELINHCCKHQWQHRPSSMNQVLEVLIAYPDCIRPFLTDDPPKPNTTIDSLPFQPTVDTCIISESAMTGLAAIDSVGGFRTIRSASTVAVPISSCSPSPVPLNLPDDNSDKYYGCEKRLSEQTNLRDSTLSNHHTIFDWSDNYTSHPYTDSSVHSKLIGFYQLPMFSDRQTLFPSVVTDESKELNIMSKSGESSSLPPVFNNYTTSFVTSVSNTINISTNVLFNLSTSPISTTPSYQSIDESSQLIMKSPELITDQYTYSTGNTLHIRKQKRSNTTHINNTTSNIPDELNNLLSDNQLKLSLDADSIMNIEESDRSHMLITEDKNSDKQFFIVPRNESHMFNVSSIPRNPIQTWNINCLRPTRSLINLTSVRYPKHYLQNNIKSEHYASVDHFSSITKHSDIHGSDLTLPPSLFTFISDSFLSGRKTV

| SMILES | GVBD at 1 mM [1] | GVBD competition assay in receptor-expressing Xenopus oocytes [2] | also measured |
| --- | --- | --- | --- |
| N[C@@H](CO)C(=O)O [Ser] | (Arg, Ser, Gly, Ala, Cys, Thr and Glu) had the potential to activate SmVKR1 | – | – |
| N[C@@H](CS)C(=O)O [Cys] | (Arg, Ser, Gly, Ala, Cys, Thr and Glu) had the potential to activate SmVKR1 | – | – |
| C[C@@H](O)[C@H](N)C(=O)O [Thr] | (Arg, Ser, Gly, Ala, Cys, Thr and Glu) had the potential to activate SmVKR1 | – | – |
| NCCC[C@H](N)C(=O)O [ornithine] | – | compete and to block totally the inducing effect of L-Arg | – |
| C[C@H](N)C(=O)O [Ala] | (Arg, Ser, Gly, Ala, Cys, Thr and Glu) had the potential to activate SmVKR1 | – | – |
| NCC(=O)O [Gly] | (Arg, Ser, Gly, Ala, Cys, Thr and Glu) had the potential to activate SmVKR1 | – | – |
| N[C@@H](CCC(=O)O)C(=O)O [Glu] | (Arg, Ser, Gly, Ala, Cys, Thr and Glu) had the potential to activate SmVKR1 | – | – |
| CN(CC(=O)O)C(=N)N [creatine] | – | compete and to block totally the inducing effect of L-Arg | – |
| N=C(N)NOCC[C@H](N)C(=O)O [Canavanine] | – | compete and to block totally the inducing effect of L-Arg | – |
| N=C(N)NCCC[C@@H](N)C(=O)O [D-Arg] | – | compete and to block totally the inducing effect of L-Arg | – |
| N=C(N)NCCCCN [agmatine] | – | compete and to block totally the inducing effect of L-Arg | – |
| N=C(N)NCCC[C@H](N)C(=O)O [L-Arg] | – | – | minimal concentration [3]: 1 mM; % GVBD at 1 μM [4]: 80% |
